Measurements as given in article PMC5725665, “Discovery of a Highly Selective Cell‐Active Inhibitor of the Histone Lysine Demethylases KDM2/7” (Angewandte Chemie (International Ed. in English), 2017).

biological target: T1, KDM2A (Homo sapiens, UniProt Q9Y2K7); assay: biochemical; set-up: RapidFire MS histone peptide demethylation assay; details: inhibitor
T1 construct: isolated enzyme
T1 sequence (Q9Y2K7 1-517 limits assumed): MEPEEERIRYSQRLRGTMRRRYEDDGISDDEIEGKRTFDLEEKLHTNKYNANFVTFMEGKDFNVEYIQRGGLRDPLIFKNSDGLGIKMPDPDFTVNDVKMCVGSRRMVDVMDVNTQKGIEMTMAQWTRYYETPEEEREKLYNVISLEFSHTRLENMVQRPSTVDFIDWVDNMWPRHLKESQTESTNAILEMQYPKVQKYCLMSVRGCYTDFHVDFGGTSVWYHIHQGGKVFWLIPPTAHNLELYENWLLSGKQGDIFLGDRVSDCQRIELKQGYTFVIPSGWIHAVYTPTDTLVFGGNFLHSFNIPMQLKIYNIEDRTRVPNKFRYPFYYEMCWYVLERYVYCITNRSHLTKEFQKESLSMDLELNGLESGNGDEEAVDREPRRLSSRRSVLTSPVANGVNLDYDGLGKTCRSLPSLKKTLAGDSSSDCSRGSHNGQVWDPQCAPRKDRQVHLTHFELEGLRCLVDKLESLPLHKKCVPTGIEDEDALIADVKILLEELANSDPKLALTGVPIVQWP
Experimental: [formula] Scheme 1 A) General synthetic strategy for racemic synthesis of KDM2A inhibitors. Reagents and conditions: i) Zn powder (10 equiv), NH4Cl (15 equiv), 5:1 acetone/H2O or H2, Pd/C (10 % w/w), EtOAc; ii) ArCHO (1.3 equiv), MgSO4 (5 equiv), PhMe or ArCHO (1.3 equiv), pyrrolidine (0.1 equiv), 3 Å sieves, CH2Cl2; iii) KO^tBu (1.1 equiv), PhMe, 0 °C; iv) R^3COCl (2–5 equiv), pyridine (2–5 equiv), CH2Cl2; v) metal‐catalysed cross‐coupling. B) Key structure–activity relationships. IC50 values were determined by RapidFire MS and confirmed by AlphaScreen. All compounds are racemic. C) Catalytic enantioselective synthesis. Reagents and conditions: i) CsOH⋅H2O (2.0 equiv), catalyst 14/16 (10 mol %), PhMe, −30 °C. Catalyst 14: 89 %, d.r. 10:1, e.r. 88:12; catalyst 16: 84 %, d.r. 7:1, e.r. 17:83; ii) CH3COCl (2.0 equiv), pyridine (2.0 equiv), CH2Cl2; iii) H2, Pd/C (10 % w/w), 88 % (2 steps); iv) K2CO3 (5 equiv), Br(CH2)7Br (4 equiv), acetone, reflux, 38 %; v) K2CO3 (5 equiv) pyrrolidine (4 equiv), CH3CN, 65 %; vi) PhN(SO2CF3)2 (1.1 equiv), DIPEA (2.0 equiv), CH2Cl2, 0 °C, 85 %; vii) 7‐pyrrolidine‐hept‐1‐yne (1.5 equiv), PdCl2(PPh3)2 (5 mol %), CuI (5 mol %), HN(^iPr)2, 75 °C, 79 %; viii) H2, Pd/C (10 % w/w), MeOH, 74 %. DIPEA=(^iPr)2NEt. A base‐mediated 5‐endo‐trig cyclization of a C‐2‐substituted aromatic imine afforded the racemic indoline core with two adjacent stereocenters. Subsequent acylation of the indoline ring system conferred stability towards oxidation and provided a handle for modulating polarity. Finally, metal‐catalysed cross‐coupling of the aryl bromide provided access to a variety of linkers between the indoline core and pyrrolidine capping group. In total, 45 racemic compounds were synthesized, and IC50 values for inhibition of KDM2A were determined using two orthogonal enzyme activity assays: AlphaScreen25 and RapidFire MS26 (see Section S3.1 in the Supporting Information for complete inhibition data). Key structure–activity relationships are summarized below (Scheme 1 B, compounds 2–12).

In order of rising “KDM2A RapidFire pIC50” value:
1. N#C[C@]1(c2ccccc2)c2ccccc2N[C@@H]1c1cncc(C#CCCCCCN2CCCC2)c1 (relative stereo) [compound 137, 137]  5.884
2. N#CCC(=O)N1c2ccccc2[C@](C#N)(c2ccccc2)[C@H]1c1cncc(CCCCCCCN2CCCC2)c1 (relative stereo) [compound 139, 139]  6.368
3. CC(=O)N1c2ccccc2[C@@](C#N)(c2ccccc2)[C@@H]1c1cncc(OCCCCCCCN2CCCC2)c1 [(S,S)-3]  6.401
4. N#C[C@]1(c2ccccc2)c2ccccc2N[C@@H]1c1cncc(CCCCCCCN2CCCC2)c1 (relative stereo) [compound 142, 142]  6.708

same assay, conditions: read-out: KDM2A RapidFire pIC50 (converted)

In order of falling IC50:
1. CC(=O)N1c2ccccc2[C@](C#N)(c2ccccc2)[C@H]1c1cccc(OCCCCCCCN2CCOCC2)c1 (racemic) [compound 70, (2RS,3RS)-1-Acetyl-2-(3-((7-morpholinoheptyl)oxy)phenyl)-3-phenylindoline-3-carbonitrile]  3260 nM
2. N#C[C@]1(c2ccccc2)c2ccccc2N(C(=O)c2ccccc2)[C@@H]1c1cccc(OCCCCCCCN2CCCC2)c1 (racemic) [compound 63, (2RS,3RS)-1-Benzoyl-3-phenyl-2-(3-((7-(pyrrolidin-1-yl)heptyl)oxy)phenyl)indoline-3-carbonitrile]  2020 nM
3. CC(=O)N1c2ccccc2[C@](C#N)(c2ccccc2)[C@H]1c1cccc(OCCCCN2CCCC2)c1 (racemic) [compound 56, (2RS,3RS)-1-Acetyl-3-phenyl-2-(3-(4-(pyrrolidin-1-yl)butoxy)phenyl)indoline-3-carbonitrile]  2020 nM
4. CC(=O)N1c2ccccc2[C@](C#N)(c2ccccc2)[C@H]1c1cccc(OCCCCCCCCCN2CCCC2)c1 (racemic) [compound 62, (2RS,3RS)-1-Acetyl-3-phenyl-2-(3-((9-(pyrrolidin-1-yl)nonyl)oxy)phenyl)indoline-3-carbonitrile]  1510 nM
5. CC(=O)N1c2ccccc2[C@](C#N)(c2ccccc2)[C@H]1c1cccc(OCCCCCCCCN2CCCC2)c1 (racemic) [compound 60, (2RS,3RS)-1-Acetyl-3-phenyl-2-(3-((8-(pyrrolidin-1-yl)octyl)oxy)phenyl)indoline-3-carbonitrile]  1380 nM
6. CC(C)CC(=O)N1c2ccccc2[C@](C#N)(c2ccccc2)[C@H]1c1cccc(OCCCCCCCN2CCCC2)c1 (racemic) [compound 65, (2RS,3RS)-1-(3-Methylbutanoyl)-3-phenyl-2-(3-((7-(pyrrolidin-1-yl)heptyl)oxy)phenyl)indoline-3-carbonitrile]  1350 nM
7. N#C[C@]1(c2ccccc2)c2ccccc2N(C(=O)c2ccc(C(F)(F)F)cc2)[C@@H]1c1cccc(OCCCCCCCN2CCCC2)c1 (racemic) [compound 66, (2RS,3RS)-3-Phenyl-2-(3-((7-(pyrrolidin-1-yl)heptyl)oxy)phenyl)-1-(4-(trifluoromethyl)benzoyl)indoline-3-carbonitrile]  1320 nM
8. CC(=O)N1c2ccccc2[C@](C#N)(c2ccccc2)[C@H]1c1cccc(OCCCCCN2CCCC2)c1 (racemic) [compound 57, (2RS,3RS)-1-Acetyl-3-phenyl-2-(3-((5-(pyrrolidin-1-yl)pentyl)oxy)phenyl)indoline-3-carbonitrile]  1250 nM
9. CC(=O)N1c2ccccc2[C@](C#N)(c2ccccc2)[C@H]1c1cccc(OCCCCCCCN2CCCCC2)c1 (racemic) [compound 69, (2RS,3RS)-1-Acetyl-3-phenyl-2-(3-((7-(piperidin-1-yl)heptyl)oxy)phenyl)indoline-3-carbonitrile]  1070 nM
10. CC(=O)N1c2ccccc2[C@](C#N)(c2ccccc2)[C@H]1c1cccc(OCCCCCCN2CCCC2)c1 (racemic) [compound 58, (2RS,3RS)-1-Acetyl-3-phenyl-2-(3-((6-(pyrrolidin-1-yl)hexyl)oxy)phenyl)indoline-3-carbonitrile]  1030 nM
11. CC(=O)N1c2ccccc2[C@](C#N)(c2ccccc2)[C@H]1c1cccc(OCCCCCCCN2CCCC2)c1 (racemic) [compound 59, (2RS,3RS)-1-Acetyl-3-phenyl-2-(3-((7-(pyrrolidin-1-yl)heptyl)oxy)phenyl)indoline-3-carbonitrile]  893 nM
12. N#C[C@]1(c2ccccc2)c2ccccc2N(C(=O)c2ccco2)[C@@H]1c1cccc(OCCCCCCCN2CCCC2)c1 (racemic) [compound 64, (2RS,3RS)-1-(Furan-2-carbonyl)-3-phenyl-2-(3-((7-(pyrrolidin-1-yl)heptyl)oxy)phenyl)indoline-3-carbonitrile]  883 nM
13. CC(=O)N1c2ccccc2[C@](C#N)(c2ccccc2)[C@H]1c1cncc(/C=C\CCCCCN2CCCC2)c1 (racemic) [compound 152, (2RS,3RS)-1-Acetyl-3-phenyl-2-(5-((Z)-7-(pyrrolidin-1-yl)hept-1-en-1-yl)pyridin-3-yl)indoline-3-carbonitrile]  838 nM

biological target: T2, JMJD2A (KDM4A) (Homo sapiens, UniProt O75164); assay: biochemical; set-up: AlphaScreen histone demethylase activity assay; details: read-out: KDM4A % Inhib. (18.75 uM)
T2 sequence (O75164 1-1064): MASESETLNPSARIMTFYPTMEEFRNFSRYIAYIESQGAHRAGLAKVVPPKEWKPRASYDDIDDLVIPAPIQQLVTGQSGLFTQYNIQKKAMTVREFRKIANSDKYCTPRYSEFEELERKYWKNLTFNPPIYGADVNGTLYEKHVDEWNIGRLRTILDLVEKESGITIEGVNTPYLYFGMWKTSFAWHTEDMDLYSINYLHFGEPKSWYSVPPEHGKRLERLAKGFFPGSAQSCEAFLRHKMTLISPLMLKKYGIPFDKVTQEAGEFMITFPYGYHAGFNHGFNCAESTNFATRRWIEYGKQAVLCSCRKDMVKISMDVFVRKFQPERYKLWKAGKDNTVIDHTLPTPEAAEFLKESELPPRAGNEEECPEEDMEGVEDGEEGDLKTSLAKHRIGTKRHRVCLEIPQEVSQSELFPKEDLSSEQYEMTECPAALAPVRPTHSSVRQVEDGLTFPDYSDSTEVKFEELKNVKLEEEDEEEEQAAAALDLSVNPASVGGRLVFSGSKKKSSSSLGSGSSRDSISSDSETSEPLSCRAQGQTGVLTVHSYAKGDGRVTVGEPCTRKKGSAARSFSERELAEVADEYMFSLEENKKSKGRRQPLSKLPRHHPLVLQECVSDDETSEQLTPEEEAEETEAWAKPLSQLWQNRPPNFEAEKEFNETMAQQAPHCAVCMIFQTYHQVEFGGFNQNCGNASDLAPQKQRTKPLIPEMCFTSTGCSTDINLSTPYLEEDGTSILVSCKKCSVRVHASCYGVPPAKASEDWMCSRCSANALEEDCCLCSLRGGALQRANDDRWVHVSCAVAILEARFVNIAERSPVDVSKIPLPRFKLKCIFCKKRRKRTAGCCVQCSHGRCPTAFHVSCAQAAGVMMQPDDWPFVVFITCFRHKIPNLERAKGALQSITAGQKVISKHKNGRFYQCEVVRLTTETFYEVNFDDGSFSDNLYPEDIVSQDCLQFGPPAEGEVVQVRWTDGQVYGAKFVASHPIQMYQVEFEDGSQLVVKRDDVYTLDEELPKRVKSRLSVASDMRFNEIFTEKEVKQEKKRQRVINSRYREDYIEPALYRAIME

In order of falling inhibition at 18.75 µM:
1. CC(=O)N1c2ccccc2C(C#N)(c2ccccc2)C1c1ccc(C#CCCCCCN2CCCC2)o1 (centres unmarked) [compound 133, 133]  19.8%
2. CC(=O)N1c2ccccc2C(C#N)(c2ccccc2)C1c1cc(C#CCCCCCN2CCCC2)co1 (centres unmarked) [compound 134, 134]  19.4%
3. CC(=O)N1c2ccccc2[C@](C#N)(c2ccccc2)[C@H]1c1cccc(/C=C/CCCCCN2CCCC2)c1 (racemic) [compound 9, 9]  3.4%
